Series [1] deals with UGT71G1. Particulars: previous studies; cited from earlier work.
The conditions of series [2]: patients that administer irinotecan; SN-38 excreted into the intestines via bile; cited from earlier work.
The test system of series [3] is UGT71G1. In words: LC-MS/MS analysis of substrates and glycosylated products of the UGT71G1 reaction. Type of series: biochemical, Medicago truncatula. Particulars: for validation as UGT71G1 substrate (glycosylated product detected): substrate 10 μM, UDP-glucose 50 μM, pH 7.4, 37° C., 2 hours 3HF, 4 hours SN-38, 24 hours BPA. The protocol:
Liquid chromatography-coupled mass spectrometric analysis of substrates and products. The glycosylation reaction for plant UGT71G1 enzyme extracted from E. coli BL21(DE3) cells containing UGT71G1-pET28a was performed similar to the glucuronidation reaction as those published previously 17 with minor modification. Briefly, the enzyme UGT71G1 (final concentration 0.05-0.5 μg/ml) was mixed with UDP-glucose (50 μM) and substrate (final concentration 10 μM) in 50 mM potassium phosphate buffer (pH 7.4) to reach a final volume of 200 μL. This reaction mixture was incubated at 37° C. and at various time points for each substrate to obtain the highest product-to-substrate ratio: 2 hours for 3HF, 4 hours for SN-38, and 24 hours for BPA; reactions were ended with the addition of 200 μL methanol. The samples were centrifuged at 14000 rpm for 15 mins and supernatant was subjected to UPLC-MS/MS system for analysis after appropriate dilution with 50% MeOH solution.
LC-MS/MS analysis was performed with an EXIONLC™ UHPLC system coupled with API 5500 Q-Trap triple quadrupole mass spectrometer. A BEH C18 column (50×2.1 mm I.D., 1.7 μm, Waters, Milford, MA, USA) was used for liquid chromatography. For mobile phase, mobile phase A (MPA) was 0.1% formic acid in water and mobile phase B (MPB) was 100% acetonitrile; flow rate was 0.45 mL/min with a column temperature of 45° C. An amount of 10 μL sample was injected for each analysis and it was eluted with the following mobile phase profile: 0-0.5 min, 5-10% MPB, 0.5-1.5 min, 10-40% MPB, 1.5-4.0 min, 40-90% MPB, 4.0-4.4 min, 90% MPB, 4.4-4.6 min, 90-5% MPB, 4.6-5.0 min, 5% MPB. Gradient mobile phase for mycophenolic acid and metabolites: 0-1.0 min, 5-20% MPB, 1.0-1.5 min, 20% MPB, 1.5-4.0 min, 20-40% MPB, 4.0-5.0 min, 40-90% MPB, 5.0-5.5 min, 90-5% MPB, 5.5-6.0 min, 5% MPB.
To validate our results from the high-throughput fluorescent assay, a liquid chromatography-coupled tandem mass spectrometric (LC-MS/MS) method was used to monitor the reaction of UGT71G1 with 3-hydroxyflavone, bisphenol A, and SN-38.

Series [4] has as its system UGT71G1. In words: High-throughput fluorescent assay for screening candidates of UGT glycosylation (UDP release, MicroMolar UDP assay kit). It counts as biochemical, Medicago truncatula. Particulars: 6 μg UGT71G1, UDP-glucose 50 μM, substrate candidate 0.8 to 160 μM, 37° C. 45 minutes, ex 485 nm / em 535 nm.
Procedure: High-throughput fluorescent assay for screening candidates of UGT glycosylation. Characterization of UDP formation involved the MicroMolar UDP assay kit (ProFoldin). For each reaction, reagents used from this kit include 3 μL of 10× buffer, 0.3 μL of 100×MUD reagent 1, and 0.3 μL of 100×MUD reagent 2. […] Each sample was then mixed with 30 μL of 1× fluorescence dye from the MICROMOLAR UDP assay kit and fluorescence was measured immediately with a BIOTEK SYNERGY H1 M florescence microplate reader at excitation 485 nm and emission 535 nm.
For a high-through method to robustly detect UGT activities with different glycosyl acceptor, it is necessary to target a change that is independent from the acceptor molecule. UDP-glycosyltransferases take UDP-glucose as a co-substrate; while the glucosyl moiety is transferred to the acceptor molecule, UDP is released as a by-product (FIG. 1A). Thus, UGT activities can be detected by the rise in UDP level in the reaction mixture. In our method to monitor an increase in UDP concentration, the UGT71G1 enzymatic reaction was coupled to the UDP assay kit, in which the release of UDP leads to an increase in fluorescence intensity.

Molecules are shown by their SMILES.

Turning to `COc1ccc(-c2coc3cc(O)cc(O)c3c2=O)cc1` [Sample 130, Biochanin A], in the series with UGT71G1 [1], the “glycosylation of hydroxyl groups by UGT71G1” value is recorded as “glycosylates multiple hydroxyl groups”.
On to `CCc1c2c(nc3ccc(OC(=O)N4CCC(N5CCCCC5)CC4)cc13)-c1cc3c(c(=O)n1C2)COC(=O)[C@]3(O)CC` [irinotecan], for which the patients experiencing diarrhea in series [2] is listed as 25%.
Regarding `CC(C)(c1ccc(O)cc1)c1ccc(O)cc1` [Sample 135, Bisphenol A], in the series with UGT71G1 [3] (BPA 10 μM, 24 hours, major monoglycosylated, minor diglycosylated), the “products formed in the reaction catalyzed by UGT71G1” value was “two products”. For the same compound, in the series with UGT71G1 [3], the “validation as UGT71G1 substrate (glycosylated product detected)” value (“validation as UGT71G1 substrate” for short) was “validated”.
On to `CCc1c2c(nc3ccc(O)cc13)-c1cc3c(c(=O)n1C2)COC(=O)[C@]3(O)CC` [Sample 58, 7-Ethyl-10-hydroxycamptothecin], for which the “validation as UGT71G1 substrate” value in the series on UGT71G1 [3] is listed as “validated”.
Turning to `O=c1c(-c2ccc(O)cc2)coc2cc(O)cc(O)c12` [Sample 88, Genistein], in the series on UGT71G1 [1], the “glycosylation of hydroxyl groups by UGT71G1” value is listed as “glycosylates multiple hydroxyl groups”.
On to `O=c1c(O)c(-c2ccccc2)oc2ccccc12` [Sample 26, 3-Hydroxyflavone], for which the “fold increase in fluorescent signal / fluorescence intensity with UGT71G1, comparing to the condition without UGT71G1” value in the series on UGT71G1 [4] is 30 fold. Further, the “validation as UGT71G1 substrate” value in the series with UGT71G1 [3] is reported as “validated”.

Source of the values: patent US20250263774A1, “DISCOVERING NEW XENOBIOTIC SUBSTRATES OF AN UDP-GLYCOSYLTRANSFERASE WITH A HIGH-THROUGHPUT METHOD” (priority 2024, published 2025).
